The values below come from US7737167B2, “2-amino benzimidazole derivatives and their use as modulators of small-conductance calcium-activated potassium channels” (Neurosearch A/S, priority 2004, dated 2010).

Counter-ions that a name gives are not always drawn.

The melting point is the temperature, or range, at which the solid turns liquid. The molecule `Brc1ccc2c(c1)CCC2Nc1nc2ccccc2[nH]1` (stereo not shown) [Example 9, N-(Benzimidazol-2-yl)-5-bromo-1-indanylamine] came in with a melting point of 242 to 243 °C. Then `Cc1cc2nc(N[C@@H]3CCCc4ccccc43)[nH]c2cc1C` [Example 23, (R)-N-(5,6-Dimethylbenzimidazol-2-yl)-1,2,3,4-tetrahydro-1-naphthylamine], with 121 to 124 °C; and `Cc1cc(C)c2c(c1)C(Nc1nc3ccccc3[nH]1)CCC2` (stereo not shown) [Example 19, N-(Benzimidazol-2-yl)-5,7-dimethyl-1,2,3,4-tetrahydro-1-naphthylamine], with 250 to 252 °C. As for `Clc1ccc(C(Nc2nc3ccccc3[nH]2)c2ccc(Cl)cc2)cc1` [Example 13, N-(Benzimidazol-2-yl)-4,4′-dichlorobenzhydrylamine], the figure is 176 to 180 °C; as for `Fc1ccc(C(Nc2nc3ccccc3[nH]2)c2ccc(F)cc2)cc1` [Example 14, N-(Benzimidazol-2-yl)-4,4′-difluorobenzhydrylamine], 241 to 243 °C; as for `c1ccc2c(c1)CCCCC2Nc1nc2ccccc2[nH]1` (stereo not shown) [Example 15, N-(Benzimidazol-2-yl)-6,7,8,9-tetrahydro-5H-benzocyclohepten-5-ylamine], 203 to 205 °C. As for `c1ccc2c(c1)CC(Nc1nc3ccccc3[nH]1)C2` [Example 6, N-(Benzimidazol-2-yl)-2-indanylamine], the figure is 246 to 249 °C.

As for `Clc1ccc2c(c1)CCC2Nc1nc2ccccc2[nH]1` (stereo not shown) [Example 8, N-(Benzimidazol-2-yl)-5-chloro-1-indanylamine], the melting point fell in the range of 242 to 243 °C. As for `c1ccc(C(CCNc2nc3ccccc3[nH]2)c2ccccc2)cc1` (as salt: HCl) [Example 4, N-(Benzimidazol-2-yl)-3,3-diphenylpropylamine], the figure is 136.5 to 137.5 °C; as for `Clc1ccc(C(CNc2nc3ccccc3[nH]2)c2ccc(Cl)cc2)cc1` [Example 3, N-(Benzimidazol-2-yl)-2,2-bis(4-chlorophenyl)ethylamine], 189 to 190 °C. Then `CC1CCc2ccccc2C1Nc1nc2ccccc2[nH]1` (stereo not shown) [Example 18, N-(Benzimidazol-2-yl)-2-methyl-1,2,3,4-tetrahydro-1-naphthylamine], with 256 to 257 °C; and `c1ccc(C(Nc2nc3ccccc3[nH]2)c2ccccc2)cc1` [Example 11, N-(Benzimidazol-2-yl)benzhydrylamine], with 255 to 258 °C; and `Fc1ccc2c(c1)C(Nc1nc3ccccc3[nH]1)CCC2` (stereo not shown) [Example 26, N-(Benzimidazol-2-yl)-7-fluoro-1,2,3,4-tetrahydro-1-naphthylamine], with 181 °C.

Take `Clc1ccc(C(Nc2nc3ccccc3[nH]2)c2ccccc2)cc1` (stereo not shown) [Example 12, N-(Benzimidazol-2-yl)-4-chlorobenzhydrylamine]: the melting point was 180 to 184 °C. In turn, `CC1CCC(Nc2nc3ccccc3[nH]2)c2ccccc21` (stereo not shown) (as salt: HCl) [Example 20, N-(Benzimidazol-2-yl)-4-methyl-1,2,3,4-tetrahydro-1-naphthylamine] registered a melting point of 276 °C. The molecule `Fc1ccc(C(CNc2nc3ccccc3[nH]2)c2ccc(F)cc2)cc1` [Example 2, N-(Benzimidazol-2-yl)-2,2-bis(4-fluorophenyl)ethylamine] came in with a melting point of 155 to 157 °C. As for `Fc1ccc2c(c1)CCC2Nc1nc2ccccc2[nH]1` (stereo not shown) [Example 7, N-(Benzimidazol-2-yl)-5-fluoro-1-indanylamine], the figure is 207 to 208 °C; as for `c1ccc(C(CNc2nc3ccccc3[nH]2)c2ccccc2)cc1` (as salt: HCl) [Example 1, N-(Benzimidazol-2-yl)-2,2-diphenylethylamine], 153.5 to 154.5 °C. As for `Fc1ccc2nc(NC3CCCc4ccccc43)[nH]c2c1` (stereo not shown) [Example 24, N-(5-Fluorobenzimidazol-2-yl)-1,2,3,4-tetrahydro-1-naphthylamine], the figure is 220 to 221 °C.
